Results reported in patent publication US11834448B2, “2-amino-quinoline derivatives” (BIRDIE BIOPHARMACEUTICALS, INC., priority 2017, dated 2023).

Columns and labels:
Human PBMCs [1] = experiment: Cytokine production in PBMCs: human IFN-α by ELISA; type: cell-based; parameters: key: ″+″ means that there was production of IFNa or IL-6 on PBMC; ″−″means that noproduction of IFNa or IL-6 on PBMC was detected; settings: compounds tested at concentration of 10 uM; human PBMCs cultured 20-22 hours; supernatant ELISA
Method: (§1) The compound functionality was tested for some of the compounds prepared by stimulation and determination of cytokine production in PBMCs.
(§2) Human PBMCs were prepared from buffy coat obtained from healthy volunteer donor by Ficoll centrifugation and were adjusted to the final cell concentration to 1×10^6 cells/mL.
(§3) For evaluation of compound activities, 1×10^5 PBMCs were plated in a 96-well plate in 100 μl of RPMI 1640 complete medium (cat no. 31800-022, GIBCO by Life Technologies, Grand Island, NY, USA) supplemented with 10% fetal bovine serum, the tested compound was first dissolved in DMSO and further diluted in PBS and RPMI 1640 medium to the final concentration of […] (corresponding to 6.28 μg/mL), then 3-fold serially dilution was made in a 96-well round-bottom plate. 100 μl diluted compound was added to the same volume of 1×10^5 PBMCs plate and cultured for 20-22 hours at 37° C. in a humidified atmosphere of 5% CO2. The supernatant was collected for human IFN-α, IL12(p70) and IL-6 analysis by ELISA assay according to the manufacturer's instructions (Mabtech AB, Sweden). Resiquimod was used as a positive control.

Human PBMCs [2] = experiment: Cytokine production in PBMCs: human IL-6 by ELISA; type: cell-based; parameters: key: ″+″ means that there was production of IFNa or IL-6 on PBMC; ″−″means that noproduction of IFNa or IL-6 on PBMC was detected; settings: compounds tested at concentration of 10 uM; human PBMCs cultured 20-22 hours; supernatant ELISA
Method: as §1, §2, §3

SMILES	Production of IFNa on PBMC (Human PBMCs [1])	Production of IL−6 on PBMC (Human PBMCs [2])
CCOCc1nc2c(N)nc3cccc(OC)c3c2n1CC(C)(C)O [Compound 1, 1-(4-amino-2-(ethoxymethyl)-9-methoxy-1H-imidazo[4,5-c]quinolin-1-yl)-2-methylpropan-2-ol]	+	+
CCOCc1nc2c(N)nc3cccc(OC)c3c2n1CC(C)C [Compound 2, 2-(ethoxymethyl)-1-isobutyl-9-methoxy-1H-imidazo[4,5-c]quinolin-4-amine]	+	+
COCCc1nc2c(N)nc3cccc(OC)c3c2n1CC(C)(C)O [Compound 3, 1-(4-amino-9-methoxy-2-(2-methoxyethyl)-1H-imidazo[4,5-c]quinolin-1-yl)-2-methylpropan-2-ol]	−	−
COc1cccc2nc(N)c3nc(CCO)n(CC(C)(C)O)c3c12 [Compound 4, 1-(4-amino-2-(2-hydroxyethyl)-9-methoxy-1H-imidazo[4,5-c]quinolin-1-yl)-2-methylpropan-2-ol]	−	−
CCOCc1nc2c(N)nc3cccc(OCCC(C)(C)O)c3c2[nH]1 [Compound 5, 4-((4-amino-2-(ethoxymethyl)-1H-imidazo[4,5-c]quinolin-9-yl)oxy)-2-methylbutan-2-ol]	+	+
CCOCc1nc2c(N)nc3cccc(OCCC(C)C)c3c2[nH]1 [Compound 6, 2-(ethoxymethyl)-9-(isopentyloxy)-1H-imidazo[4,5-c]quinolin-4-amine]		+
CCOCc1nc2c(N)nc3cccc(OCCC(C)O)c3c2[nH]1 (centres unmarked) [Compound 7, 4-((4-amino-2-(ethoxymethyl)-1H-imidazo[4,5-c]quinolin-9-yl)oxy)butan-2-ol]		+
CCOCc1nc2c(N)nc3cccc(OCC(C)O)c3c2[nH]1 (centres unmarked) [Compound 8, 1-((4-amino-2-(ethoxymethyl)-1H-imidazo[4,5-c]quinolin-9-yl)oxy)propan-2-ol]	+	+
COCCc1nc2c(N)nc3cccc(OCCC(C)(C)O)c3c2[nH]1 [Compound 9, 4-((4-amino-2-(2-methoxyethyl)-1H-imidazo[4,5-c]quinolin-9-yl)oxy)-2-methylbutan-2-ol]		+
CCOCc1nc2c(N)nc3cccc(OCCC(C)(C)O)c3c2n1C [Compound 10, 4-((4-amino-2-(ethoxymethyl)-1-methyl-1H-imidazo[4,5-c]quinolin-9-yl)oxy)-2-methylbutan-2-ol]		+
CCOCc1nc2c(N)nc3cccc(OCCOC(C)C)c3c2[nH]1 [Compound 11, 2-(ethoxymethyl)-9-(2-isopropoxyethoxy)-1H-imidazo[4,5-c]quinolin-4-amine]	+	+
CCOCc1nc2c(N)nc3cccc(OCCC(C)(C)O)c3c2n1CC(C)C [Compound 12, 4-((4-amino-2-(ethoxymethyl)-1-isobutyl-1H-imidazo[4,5-c]quinolin-9-yl)oxy)-2-methylbutan-2-ol]	+	+
CCOCc1nc2c(N)nc3cccc(OC)c3c2n1CCOC(C)C [Compound 13, 2-(ethoxymethyl)-1-(2-isopropoxyethyl)-9-methoxy-1H-imidazo[4,5-c]quinolin-4-amine]	+	+
CCOCc1nc2c(N)nc3cccc(OC)c3c2n1CCC(C)(C)O [Compound 14, 4-(4-amino-2-(ethoxymethyl)-9-methoxy-1H-imidazo[4,5-c]quinolin-1-yl)-2-methylbutan-2-ol]	+	+
CCOCc1nc2c(N)nc3cccc(OCC(C)C)c3c2[nH]1 [Compound 15, 2-(ethoxymethyl)-9-isobutoxy-1H-imidazo[4,5-c]quinolin-4-amine]	+	+
CCOCc1nc2c(N)nc3cccc(OCCOC(C)C)c3c2n1C [Compound 16, 2-(ethoxymethyl)-9-(2-isopropoxyethoxy)-1-methyl-1H-imidazo[4,5-c]quinolin-4-amine]	+	+
CCOCc1nc2c(N)nc3cccc(OCCC(C)C)c3c2n1C [Compound 17, 2-(ethoxymethyl)-9-(isopentyloxy)-1-methyl-1H-imidazo[4,5-c]quinolin-4-amine]	+	+
CCOCc1nc2c(N)nc3cccc(OCC(C)C)c3c2n1C [Compound 18, 2-(ethoxymethyl)-9-isobutoxy-1-methyl-1H-imidazo[4,5-c]quinolin-4-amine]	+	+
CCOCc1nc2c(N)nc3cccc(OCCCNS(C)(=O)=O)c3c2n1C [Compound 19, N-(3-((4-amino-2-(ethoxymethyl)-1-methyl-1H-imidazo[4,5-c]quinolin-9-yl)oxy)propyl)methanesulfonamide]	+	+
CCOCc1nc2c(N)nc3cccc(OCCOCCNS(C)(=O)=O)c3c2n1C [Compound 20, N-(2-(2-((4-amino-2-(ethoxymethyl)-1-methyl-1H-imidazo[4,5-c]quinolin-9-yl)oxy)ethoxy)ethyl)-methanesulfonamide]	+	+
CCOCc1nc2c(N)nc3cccc(OCCCCNS(C)(=O)=O)c3c2n1C [Compound 22, N-(4-((4-amino-2-(ethoxymethyl)-1-methyl-1H-imidazo[4,5-c]quinolin-9-yl)oxy)butyl)methanesulfonamide]	+	+
CCOCc1nc2c(N)nc3cccc4c3c2n1[C@@H](C(C)(C)O)CO4 [Compound 40, (R)-2-(10-amino-2-(ethoxymethyl)-3,4-dihydro-5-oxa-1,2a,9-triazanaphtho[2,1,8-cde]azulen-3-yl)propan-2-ol]		−
CCOCc1nc2c(N)nc3cccc4c3c2n1[C@H](C(C)(C)O)CO4 [Compound 41, (S)-2-(10-amino-2-(ethoxymethyl)-3,4-dihydro-5-oxa-1,2a,9-triazanaphtho[2,1,8-cde]azulen-3-yl)propan-2-ol]		+
CCOCc1nc2c(N)nc3cccc4c3c2n1C[C@@](C)(O)CO4 [Compound 43, (R)-2-amino-12-(ethoxymethyl)-6-methyl-6,7-dihydro-5H-3,4-(azenometheno)[1,5]oxazocino[4,3,2-de]quinolin-6-ol]		−
CCOCc1nc2c(N)nc3cccc4c3c2n1C[C@@H](O)CO4 [Compound 44, (R)-2-amino-12-(ethoxymethyl)-6,7-dihydro-5H-3,4-(azenometheno)[1,5]oxazocino[4,3,2-de]quinolin-6-ol]		−
CCOCc1nc2c(N)nc3cccc4c3c2n1C[C@H](O)CO4 [Compound 45, (S)-2-amino-12-(ethoxymethyl)-6,7-dihydro-5H-3,4-(azenometheno)[1,5]oxazocino-[4,3,2-de]quinolin-6-ol]		+
CCOCc1nc2c(N)nc3cccc4c3c2n1CC(=O)CO4 [Compound 46, 2-amino-12-(ethoxymethyl)-5H-3,4-(azenometheno)[1,5]oxazocino[4,3,2-de]quinolin-6(7H)-one]		+
